Data on 30 compounds can be found in ChEMBL document CHEMBL1140195, “Synthesis, screening for antitubercular activity and 3D-QSAR studies of substituted N-phenyl-6-methyl-2-oxo-4-phenyl-1,2,3,4-tetrahydro-pyrimidine-5-carboxamides” (2008).

Format in all cases: functional
Assay [1] deals with Mycobacterium tuberculosis. The assay can be described thus: Antitubercular activity against Mycobacterium tuberculosis H37Rv.
Assay [2] concerns Mycobacterium tuberculosis. The assay can be described thus: Antitubercular activity against Mycobacterium tuberculosis H37Rv at 6.25 ug/mL relative to control.
Assay [3] has as its system Mycobacterium tuberculosis. The assay can be described thus: Antitubercular activity against Mycobacterium tuberculosis.

Each structure is given as a SMILES string. ≈ marks a conversion by molar mass, not a printed value. Where only a bound is given, the exact number is not on record here.

A word on the MIC: it is the least concentration at which growth counts as inhibited. In general, inhibition refers to the drop in the measured response relative to a control, in per cent. In assay [1], `CC1=C(C(=O)Nc2ccccc2F)C(c2ccc([N+](=O)[O-])cc2)NC(=O)N1` (centres undefined) displayed an MIC of more than 6.25 µg/mL. Moreover, the inhibition at 6.25 µg/mL in assay [2] turned out to be 4%.
The compound `CC1=C(C(=O)Nc2ccc(C)c(C)c2)C(c2ccc([N+](=O)[O-])cc2)NC(=O)N1` (centres undefined) displayed an MIC in assay [1] of more than 6.25 µg/mL. Besides, the inhibition at 6.25 µg/mL in assay [2] worked out at 13%.
In the same order, the values of `CC1=C(C(=O)Nc2ccc(F)c(Cl)c2)C(c2cccc([N+](=O)[O-])c2)NC(=O)N1` (centres undefined) are more than 6.25 µg/mL and 29%.
As for `CC1=C(C(=O)Nc2ccccc2F)C(c2cccc([N+](=O)[O-])c2)NC(=O)N1` (centres undefined), the MIC in assay [1] was more than 6.25 µg/mL. Further, the inhibition at 6.25 µg/mL in assay [2] was found to be 24%.
`CC1=C(C(=O)Nc2ccc(F)cc2)C(c2cccc(Cl)c2)NC(=O)N1` (centres undefined): the MIC in assay [1] was more than 6.25 µg/mL. Further, the inhibition at 6.25 µg/mL in assay [2] was 38%.
For the compound `CC1=C(C(=O)Nc2ccccc2Cl)C(c2ccccc2[N+](=O)[O-])NC(=O)N1` (centres undefined), the MIC in assay [1] was more than 6.25 µg/mL. In assay [2], this compound yielded an inhibition at 6.25 µg/mL of 11%.
For `CC1=C(C(=O)Nc2cc(C)ccc2C)C(c2cccc(Oc3ccccc3)c2)NC(=O)N1` (centres undefined), the MIC in assay [1] was more than 6.25 µg/mL. Further, the inhibition at 6.25 µg/mL in assay [2] came to 27%.
Take `CC1=C(C(=O)Nc2cccc(C)c2C)C(c2cccc(Oc3ccccc3)c2)NC(=O)N1` (centres undefined): the MIC in assay [1] was more than 6.25 µg/mL. In assay [2], this compound came in with an inhibition at 6.25 µg/mL of 65%.
For `CC1=C(C(=O)Nc2ccccc2Cl)C(c2ccc(Cl)cc2)NC(=O)N1` (centres undefined) the same measures were more than 6.25 µg/mL and 26%.
Take `CC1=C(C(=O)Nc2ccccc2)C(c2ccc([N+](=O)[O-])cc2)NC(=O)N1` (centres undefined): the MIC in assay [1] was more than 6.25 µg/mL. In assay [2], this compound came in with an inhibition at 6.25 µg/mL of 25%.
The compound `CC1=C(C(=O)Nc2ccc(Cl)cc2)C(c2cccc([N+](=O)[O-])c2)NC(=O)N1` (centres undefined) yielded an MIC in assay [1] of more than 6.25 µg/mL. The compound further registered an inhibition at 6.25 µg/mL in assay [2] of 29%.
Compound `CC1=C(C(=O)Nc2ccc(F)cc2)C(c2cccc([N+](=O)[O-])c2)NC(=O)N1` (centres undefined) came in with an MIC in assay [1] of more than 6.25 µg/mL. In assay [2], this compound registered an inhibition at 6.25 µg/mL of 30%.
In the case of `CC1=C(C(=O)Nc2ccccc2C)C(c2cccc([N+](=O)[O-])c2)NC(=O)N1` (centres undefined), the MIC in assay [1] is more than 6.25 µg/mL. The compound also gave an inhibition at 6.25 µg/mL in assay [2] of 6%.
In assay [1], `CC1=C(C(=O)Nc2ccc(C)c(C)c2)C(c2cccc(Oc3ccccc3)c2)NC(=O)N1` (centres undefined) yielded an MIC of more than 6.25 µg/mL. Also, in assay [2], the inhibition at 6.25 µg/mL came to 32%.
In assay [1], `CC1=C(C(=O)Nc2cc(C)ccc2C)C(c2ccc([N+](=O)[O-])cc2)NC(=O)N1` (centres undefined) registered an MIC of more than 6.25 µg/mL. In assay [2], this compound returned an inhibition at 6.25 µg/mL of 4%.
`CC1=C(C(=O)Nc2cc(C)ccc2C)C(c2ccc(Cl)cc2)NC(=O)N1` (centres undefined): the MIC in assay [1] is more than 6.25 µg/mL. In assay [2], this compound registered an inhibition at 6.25 µg/mL of 6%.
As for `CC1=C(C(=O)Nc2ccccc2F)C(c2ccc(O)cc2)NC(=O)N1` (centres undefined), the MIC in assay [1] was more than 6.25 µg/mL. Also, at 6.25 µg/mL the inhibition in assay [2] was 18%.
`CC1=C(C(=O)Nc2ccc(C)cc2C)C(c2ccc(O)cc2)NC(=O)N1` (centres undefined): the minimum inhibitory concentration (MIC) in assay [1] is more than 6.25 µg/mL. This compound also displayed an inhibition at 6.25 µg/mL in assay [2] of 12%.
In assay [1], `CC1=C(C(=O)Nc2cccc([N+](=O)[O-])c2)C(c2ccc(O)cc2)NC(=O)N1` (centres undefined) yielded an MIC of more than 6.25 µg/mL. This compound came in with an inhibition at 6.25 µg/mL in assay [2] of 2%.
In turn, `CC1=C(C(=O)Nc2ccc(F)c(Cl)c2)C(c2ccc([N+](=O)[O-])cc2)NC(=O)N1` (centres undefined) came in with an MIC in assay [1] of more than 6.25 µg/mL. In addition, in assay [2], 6.25 µg/mL produced 22% inhibition.
In turn, `CC1=C(C(=O)Nc2ccccc2Cl)C(c2cccc([N+](=O)[O-])c2)NC(=O)N1` (centres undefined) registered an MIC in assay [1] of more than 6.25 µg/mL. The compound further showed an inhibition at 6.25 µg/mL in assay [2] of 26%.
The compound `CC1=C(C(=O)Nc2ccc(F)c(Cl)c2)C(c2cccc(Cl)c2)NC(=O)N1` (centres undefined) registered an MIC in assay [1] of more than 6.25 µg/mL. The compound further had an inhibition at 6.25 µg/mL in assay [2] of 48%.
Compound `CC1=C(C(=O)Nc2ccc(C)cc2C)C(c2ccc([N+](=O)[O-])cc2)NC(=O)N1` (centres undefined) gave a minimum inhibitory concentration (MIC) in assay [1] of more than 6.25 µg/mL. The same compound showed an inhibition at 6.25 µg/mL in assay [2] of 12%.
As to `CC1=C(C(=O)Nc2ccc(C)cc2)C(c2cccc([N+](=O)[O-])c2)NC(=O)N1` (centres undefined), the minimal inhibitory concentration (MIC) in assay [1] was more than 6.25 µg/mL. Further, the inhibition at 6.25 µg/mL in assay [2] came to 28%.
`CC1=C(C(=O)Nc2ccc(Cl)cc2)C(c2ccc([N+](=O)[O-])cc2)NC(=O)N1` (centres undefined): the MIC in assay [1] was more than 6.25 µg/mL. This compound also gave an inhibition at 6.25 µg/mL in assay [2] of 9%.
The compound `CC1=C(C(=O)Nc2cc(Cl)ccc2Cl)C(c2ccc([N+](=O)[O-])cc2)NC(=O)N1` (centres undefined) came in with an MIC in assay [1] of more than 6.25 µg/mL. In assay [2], this compound came in with an inhibition at 6.25 µg/mL of 18%.
In assay [1], `CC1=C(C(=O)Nc2ccc(C)c(C)c2)C(c2cccc([N+](=O)[O-])c2)NC(=O)N1` (centres undefined) came in with an MIC of more than 6.25 µg/mL. The compound further displayed an inhibition at 6.25 µg/mL in assay [2] of 63%.
Consider `COc1ccc(NC(=O)C2=C(C)NC(=O)NC2c2ccc([N+](=O)[O-])cc2)cc1` (centres undefined), for which the MIC in assay [1] is more than 6.25 µg/mL. In assay [2], this compound gave an inhibition at 6.25 µg/mL of 21%.
In the same order, the values of `COc1ccc(C2NC(=O)NC(C)=C2C(=O)Nc2cc(C)ccc2C)cc1` (centres undefined) are more than 6.25 µg/mL and 2%.
For the compound `CCCc1cc(=O)oc2c3c(c4c(c12)OC(C)(C)C=C4)O[C@H](C)[C@@H](C)[C@@H]3O` [CALANOLIDE A], the MIC in assay [3] is 3.13 µg/mL (≈ 8.45 µM).
